A short description of series [1]: Benzylamine stability in control cell lysate (no SSAO expressed), LC/MS/MS. The series is classed as in vitro ADME. The conditions noted are these: tag None. The protocol:
(§1) Adherent CHO cells were cultured at 37° C., 5% CO2 in media containing Ham's F12, 10% fetal bovine serum, 2 mM L-glutamine, 1% Penicillin/Streptomycin, 300 μM hygromycin B. Adherent HEK 293 cells were cultured at 37° C., 5% CO2 in D-MEM (high glucose), 10% fetal bovine serum, 2 mM L-glutamine, and 200 μM hygromycin B. Stable transformants were identified by loss of zeocin resistance. Once the cells were 80% confluent, SSAO expression was induced by the addition of Tetracycline to 1 μg/mL. Following 18 hours, the cells were harvested using a trypsin treatment of 3 minutes, at room temperature. Cells were washed 3 times in phosphate buffered saline before flash freezing in liquid nitrogen.
(§2) For the preparation of cell lysate for activity testing, frozen cell pellets were resuspended in lysate buffer containing 10 mM Tris-HCl (pH 7.2), 150 mM NaCl, 1.5 mM MgCl2, 1% v/v NP-40 and incubated for 15 minutes on ice. Lysate was cleared by centrifugation 800×g for 10 minutes, 4° C. and stored in aliquots at −80° C. until use. Proteins were determined using Pierce Coomassie Protein Reagent, according to manufacturer's instructions.
(§3) For each assay run, 1 mL of cell lysate (1.5 mg/mL protein) was mixed with benzylamine to 2000 ng/mL final concentration. At each corresponding time point, […] the incubation mixture was transferred to a microcentrifuge tube (1.7 mL) and mixed with 50 μL of acetonitrile. The tubes were vortex mixed briefly to ensure complete mixing and then centrifuged at 10,000×g for 5 minutes. The supernatant was removed and 50 μL was transferred to an autosampler vial and mixed with 50 μL of water before LC/MS/MS analysis. Benzylamine remaining in the lysate was analyzed with LC/MS/MS method.
(§4) LC/MS/MS analysis was performed with a PE Sciex API 3000 mass spectrometer under the following conditions listed below and in Tables 1 and 2: […]

For series [2], the target named is T1, human SSAO T2 (Met211-Asn763), untagged (Homo sapiens, UniProt Q16853).
T1 construct: T2 (Met211-Asn763) Representing the Putative Catalytic Domain; expressed in transfected cells; cell lysate
T1 sequence (Q16853 211-763): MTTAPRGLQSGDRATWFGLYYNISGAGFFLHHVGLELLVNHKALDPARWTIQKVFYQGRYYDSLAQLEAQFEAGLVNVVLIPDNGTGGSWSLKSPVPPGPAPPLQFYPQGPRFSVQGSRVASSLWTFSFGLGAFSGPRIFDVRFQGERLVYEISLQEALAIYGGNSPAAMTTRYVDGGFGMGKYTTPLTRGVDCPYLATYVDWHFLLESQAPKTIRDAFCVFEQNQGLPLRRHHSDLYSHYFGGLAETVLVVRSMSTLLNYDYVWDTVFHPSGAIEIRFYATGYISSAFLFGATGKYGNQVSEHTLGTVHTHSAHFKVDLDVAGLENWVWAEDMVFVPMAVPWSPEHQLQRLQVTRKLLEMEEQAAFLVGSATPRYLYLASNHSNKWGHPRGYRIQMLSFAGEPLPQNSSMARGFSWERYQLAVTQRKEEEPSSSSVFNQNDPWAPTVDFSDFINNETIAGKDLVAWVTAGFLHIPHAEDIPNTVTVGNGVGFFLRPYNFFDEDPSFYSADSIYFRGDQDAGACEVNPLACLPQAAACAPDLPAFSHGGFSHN
Kind of series: Benzylamine stability in lysate of cells expressing T2 SSAO (untagged), LC/MS/MS. The conditions noted are these: tag None. The series is classed as in vitro ADME. The protocol:
4) T2 (Met211-Asn763) Representing the Putative Catalytic Domain.
The expression constructs were prepared by cloning these PCR products into the pCDNA5-FRT-To-DEST vector (Invitrogen, Gateway System™). The forward and reverse DNA sequence of each construct was confirmed including expressed sequences and at least 100 base pairs either side of this. Stable cell lines for Flp-In CHO, Flp-In CHO T-Rex, and Flp-In HEK 293 (Invitrogen, Flp-In system™) were generated using these 6 constructs according to manufacturer's instructions. Cells were co-transfected with the regulatory vector, pOG44, and each of the pCDNA5-FRT-To-DEST constructs using Lipfectamine (Invitrogen) according to manufacturer's instructions. Thus, 18 cell lines were generated: CHO Flp-In full-length SSAO; CHO Flp-In full-length SSAO with C-terminal 6×HIS tag; CHO Flp-In T1 SSAO; CHO Flp-In T1 SSAO with C-terminal 6×HIS tag; CHO Flp-In T2 SSAO; CHO Flp-In T2 SSAO with C-terminal 6×HIS tag; CHO T-Rex Flp-In full-length SSAO; CHO T-Rex Flp-In full-length SSAO with C-terminal 6×HIS tag; CHO T-Rex Flp-In T1 SSAO; CHO T-Rex Flp-In T1 SSAO with C-terminal 6×HIS tag; CHO T-Rex Flp-In T2 SSAO; CHO Flp-In T2 SSAO with C-terminal 6×HIS tag; HEK 293 Flp-In full-length SSAO; HEK 293 Flp-In full-length SSAO with C-terminal 6×HIS tag; HEK 293 Flp-In T1 SSAO; HEK 293 Flp-In T1 SSAO with C-terminal 6×HIS tag; HEK 293 Flp-In T2 SSAO; HEK 293 Flp-In T2 SSAO with C-terminal 6×HIS tag.
as §1, §2, §3, §4

Structures are written as SMILES.

As for `NCc1ccccc1` [Benzylamine], the “Benzylamine Remaining (%)” value was determined as 100% in series [1] (CHO Flp-In T-Rex lysate, SSAO None, 0 min); 104% in series [1] (CHO Flp-In T-Rex lysate, SSAO None, 10 min); 99% in series [1] (CHO Flp-In T-Rex lysate, SSAO None, 2 h); 100% in series [1] (Control CHO Flp-In lysate, SSAO none, 0 min); 104% in series [1] (Control CHO Flp-In lysate, SSAO none, 10 min); 99% in series [1] (Control CHO Flp-In lysate, SSAO none, 2 h). Also, the “Benzylamine Remaining (%)” value in series [1] (Control CHO lysate, SSAO none, 0 min) worked out at 100%; in series [1] (Control CHO lysate, SSAO none, 10 min) it was 111%; in series [1] (Control CHO lysate, SSAO none, 2 h), 110%; in series [1] (HEK293 control lysate, SSAO none, 0 min), 100%; in series [1] (HEK293 control lysate, SSAO none, 10 min), 106%; in series [1] (HEK293 control lysate, SSAO none, 2 h), 123%. Moreover, the “Benzylamine Remaining (%)” value in series [2] (CHO Flp-In T-Rex lysate, 0 min) came out at 100%; in series [2] (CHO Flp-In T-Rex lysate, 10 min), 97%; in series [2] (CHO Flp-In T-Rex lysate, 2 h), 83%; in series [2] (CHO Flp-In lysate, 0 min) it was 100%; in series [2] (CHO Flp-In lysate, 10 min), 105%; in series [2] (CHO Flp-In lysate, 2 h), 98%. Further, the “Benzylamine Remaining (%)” value in series [2] (HEK293 lysate, 0 min) stood at 100%; in series [2] (HEK293 lysate, 10 min), 113%; in series [2] (HEK293 lysate, 2 h), 101%.
